The source of these data is patent US8598209B2, “P2X3, receptor antagonists for treatment of pain” (Merck Sharp & Dohme Corp., priority 2008, dated 2013).

This assay deals with T1, human P2X3 (Homo sapiens, UniProt P56373).
T1 construct: expressed in transfected cells
T1 sequence (P56373 1-397): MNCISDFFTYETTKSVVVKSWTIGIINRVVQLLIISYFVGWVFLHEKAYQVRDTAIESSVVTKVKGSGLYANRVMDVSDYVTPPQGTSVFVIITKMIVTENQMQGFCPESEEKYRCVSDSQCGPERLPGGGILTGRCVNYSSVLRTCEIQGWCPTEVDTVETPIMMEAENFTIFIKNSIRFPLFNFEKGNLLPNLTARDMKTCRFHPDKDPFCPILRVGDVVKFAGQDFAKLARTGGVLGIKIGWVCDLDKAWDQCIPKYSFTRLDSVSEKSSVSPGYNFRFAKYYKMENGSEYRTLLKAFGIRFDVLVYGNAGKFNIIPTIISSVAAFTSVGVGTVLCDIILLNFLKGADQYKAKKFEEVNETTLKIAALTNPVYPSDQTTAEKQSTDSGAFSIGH
Kind of assay: Intracellular Calcium Measurement to Assess Antagonist Affinity (FLIPR, Fluo-4), human P2X3 cells. Format: cell-based. Conditions: Intracellular Calcium Measurement to Assess Antagonist Affinity assay; agonist α,β-meATP at EC50. The text has this: Generation of a Human P2X3 and P2X2/3 Stable Cell Line—
Human P2X3 receptor cDNA (Accession number NM_002559) was subcloned as a 5′XhoI and 3′HindIII fragment into the expression vector pcDNA5/FRT (Invitrogen). Human P2X2 receptor cDNA (Accession number NM_174873) was subcloned as a 5′EcoRI and 3′NotI fragment into the expression vector pIRESneo2 (BD Biosciences Clontech). The human P2X3 expression construct was transfected using Lipofectamine 2000 (Invitrogen) into Flp-in—293 cells (Invitrogen) according to the manufacturer's directions. Cells positive for flp-mediated recombination of […] P2X3 were selected using 150 μg/ml hygromycin. The stable human P2X3 cell line was co-transfected with the human P2X2 expression construct using Lipofectamine 2000 as above and co-transfected cells selected using […] hygromycin and 1 mg/ml G418. The stable P2X3 cell line was propagated in DMEM, 10% FBS, 100 μg/ml hygromycin, and 100 units/ml penicillin and 100 μg/ml streptomycin, and maintained at 37° and 95% humidity. The stable P2X2/3 cell line was propagated as above with the addition of 500 μg/ml G418.
Intracellular Calcium Measurement to Assess Antagonist Affinity—
A fluorescent imaging plate reader (FLIPR; Molecular Devices) was used to monitor intracellular calcium levels using the calcium-chelating dye Fluo-4 (Molecular Probes). The excitation and emission wavelengths used to monitor fluorescence were 488 nm and 530 nm, respectively. Cells expressing either human P2X3 or human P2X2/3 were plated at a density of 20,000 cells/well (20 μl/well) in 384-well black-walled plates approximately 20 hours before beginning the assay. On the day of the assay 20 μl of loading buffer (Hank's balanced salt solution, 2.5 mM CaCl2, 20 mM HEPES, 0.1% BSA, 2.5 mM probenecid, TR-40, Fluo-4, and 138 mM NMDG substituted for NaCl) is added and cells dye-loaded for 60 min in the dark at room temperature. Ten minutes prior to adding agonist, the antagonist was added in a volume of 10 μl and allowed to incubate at room temperature. During this period fluorescence data is collected at 3 sec intervals followed by 10 sec intervals. The agonist, α,β-meATP, is added at a 6× concentration ([α,β-meATP]final=EC50). Following agonist addition fluorescence was measured at 5 sec intervals and analyzed based on the increase in peak relative fluorescence units (RFU) compared to the basal fluorescence. Peak fluorescence was used to determine the inhibitory effect at each concentration of antagonist by the following equation: % Inhibition=100*(1−((RFU(drug)−RFU(control))/(RFU(DMSO only)−RFU(control)))) In vitro Electrophysiological Assay—
With `C[C@@H](NC(=O)c1cc(-c2ccc(F)cc2F)nc(C(C)(C)O)c1)c1ccc(C(F)(F)F)[n+]([O-])c1` [Example 1.62, 2-(2,4-Difluorophenyl)-6-(1-hydroxy-1-methylethyl)-N-{(1R)-1-[1-oxido-6-(trifluoromethyl)pyridin-3-yl]ethyl}isonicotinamide], the IC50 came out at 23 nM.

As to `Cc1ccc(-c2cc(C(=O)N[C@@H](C)c3nnc[nH]3)nc(-c3ccc(C)cc3)n2)cc1` [Example 2.1], the IC50 amounted to 165 nM.

As for `Cc1noc([C@@H](C)NC(=O)c2cc(-c3ccc(F)cc3)c(=O)n(C(C)C)c2)n1` [Example 5.61, 5-(4-fluorophenyl)-1-isopropyl-N-[(1R)-1-(3-methyl-1,2,4-oxadiazol-5-yl)ethyl]-6-oxo-1,6-dihydropyridine-3-carboxamide], the IC50 turned out to be 48 nM.

Consider `Cc1ccc(-c2cc(C(=O)N[C@H](C)c3nc(C)no3)cnc2OC(C)C)cc1` [Example 3.22], for which the IC50 is 42 nM.
